# Measured values from ChEMBL document CHEMBL1147821, “P3 and P4 position analysis of vinyl ester pseudopeptide proteasome inhibitors” (Bioorg Med Chem Lett, 2006).
# Target: T1, Proteasome Macropain subunit MB1 (Homo sapiens, UniProt P28074)
# T1 sequence (P28074 whole entry): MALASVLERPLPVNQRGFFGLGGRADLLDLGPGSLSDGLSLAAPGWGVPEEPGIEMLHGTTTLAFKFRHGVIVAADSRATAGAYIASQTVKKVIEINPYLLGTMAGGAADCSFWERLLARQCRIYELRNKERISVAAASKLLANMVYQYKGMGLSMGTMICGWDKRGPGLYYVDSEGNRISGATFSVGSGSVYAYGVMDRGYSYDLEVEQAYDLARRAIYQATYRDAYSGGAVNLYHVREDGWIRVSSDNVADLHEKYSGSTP
# Description: Inhibition of chymotrypsin like activity of proteasome
row,Compound,IC50 [µM]
1,CCOC(=O)/C=C/[C@H](CC(C)C)NC(=O)[C@H](CCC(N)=O)NC(=O)[C@@H](NC(=O)[C@@H](N)Cc1ccccc1)C(C)C,4.15
2,CCOC(=O)/C=C/[C@H](CC(C)C)NC(=O)[C@H](CCC(N)=O)NC(=O)[C@H](Cc1ccccc1)NC(=O)c1cccc(O)c1C,2.23
3,CCOC(=O)/C=C/[C@H](CC(C)C)NC(=O)[C@H](CCC(N)=O)NC(=O)[C@@H](NC(=O)[C@@H](N)Cc1ccc(O)cc1)C(C)C,4.32
4,CCOC(=O)/C=C/[C@H](CC(C)C)NC(=O)[C@H](CCC(N)=O)NC(=O)[C@@H](NC(=O)c1cccc(O)c1C)C(C)C,6.67
5,CC(C)C[C@@H](/C=C/S(C)(=O)=O)NC(=O)[C@H](CC(C)C)NC(=O)[C@H](CC(C)C)NC(=O)OCc1ccccc1,0.061
